Laboratory results as given in patent publication US9987276B2 (Celgene CAR LLC, priority 2008, dated 2018).
Like-named read-outs stand apart in the source and are kept apart here.

How the values were obtained:
BTK [1] = target: T1, BTK (Homo sapiens (Human), UniProt Q06187); assay: Omnia assay for potency assessment against BTK; assay type: biochemical; conditions: for IC50: [BTK]=5 nM, Omnia assay, read-out: BTK Inhibition (IC50)
Experimental: The modified BTK-optimized reagent conditions for the above protocol are:
[BTK]=5 nM, [ATP]=[…], [Y5-Sox]=[…] (ATP KMapp˜[…]).

ITK = ITK (Homo sapiens (Human), UniProt Q08881); assay: Omnia assay for potency assessment against active forms of ITK kinase; assay type: biochemical; conditions: [ITK]=10 nM, [ATP]=25, [Y6-Sox]=10 μM; read-out: ITK Inhibition
Sequence of ITK (Q08881 whole entry): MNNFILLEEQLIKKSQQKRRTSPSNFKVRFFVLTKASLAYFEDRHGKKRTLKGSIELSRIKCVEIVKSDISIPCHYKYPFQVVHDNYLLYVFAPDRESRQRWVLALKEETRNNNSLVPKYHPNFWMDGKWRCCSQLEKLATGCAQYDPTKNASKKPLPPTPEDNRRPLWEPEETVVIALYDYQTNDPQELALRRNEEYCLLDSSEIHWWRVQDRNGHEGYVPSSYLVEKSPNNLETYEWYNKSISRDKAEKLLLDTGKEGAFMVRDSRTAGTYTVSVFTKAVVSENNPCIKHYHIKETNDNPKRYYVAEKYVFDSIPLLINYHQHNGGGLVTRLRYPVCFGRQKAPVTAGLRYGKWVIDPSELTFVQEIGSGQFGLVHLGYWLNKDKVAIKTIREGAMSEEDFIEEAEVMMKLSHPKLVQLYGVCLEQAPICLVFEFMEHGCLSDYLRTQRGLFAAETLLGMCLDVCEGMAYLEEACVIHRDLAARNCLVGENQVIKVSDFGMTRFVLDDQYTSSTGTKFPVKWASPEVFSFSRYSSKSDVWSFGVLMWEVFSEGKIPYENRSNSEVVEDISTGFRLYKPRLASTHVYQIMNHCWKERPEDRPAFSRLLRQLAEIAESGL
Experimental: [ITK]=10 nM, [ATP]=25 [Y6-Sox]=10 μM (ATP KMapp=33 μM).

EGFR T790M = EGFR T790M (Homo sapiens (Human), UniProt P00533, T790M); assay: EGFR mutant T790M inhibition assay; assay type: biochemical
Sequence of EGFR T790M (P00533 25-1210 T790M): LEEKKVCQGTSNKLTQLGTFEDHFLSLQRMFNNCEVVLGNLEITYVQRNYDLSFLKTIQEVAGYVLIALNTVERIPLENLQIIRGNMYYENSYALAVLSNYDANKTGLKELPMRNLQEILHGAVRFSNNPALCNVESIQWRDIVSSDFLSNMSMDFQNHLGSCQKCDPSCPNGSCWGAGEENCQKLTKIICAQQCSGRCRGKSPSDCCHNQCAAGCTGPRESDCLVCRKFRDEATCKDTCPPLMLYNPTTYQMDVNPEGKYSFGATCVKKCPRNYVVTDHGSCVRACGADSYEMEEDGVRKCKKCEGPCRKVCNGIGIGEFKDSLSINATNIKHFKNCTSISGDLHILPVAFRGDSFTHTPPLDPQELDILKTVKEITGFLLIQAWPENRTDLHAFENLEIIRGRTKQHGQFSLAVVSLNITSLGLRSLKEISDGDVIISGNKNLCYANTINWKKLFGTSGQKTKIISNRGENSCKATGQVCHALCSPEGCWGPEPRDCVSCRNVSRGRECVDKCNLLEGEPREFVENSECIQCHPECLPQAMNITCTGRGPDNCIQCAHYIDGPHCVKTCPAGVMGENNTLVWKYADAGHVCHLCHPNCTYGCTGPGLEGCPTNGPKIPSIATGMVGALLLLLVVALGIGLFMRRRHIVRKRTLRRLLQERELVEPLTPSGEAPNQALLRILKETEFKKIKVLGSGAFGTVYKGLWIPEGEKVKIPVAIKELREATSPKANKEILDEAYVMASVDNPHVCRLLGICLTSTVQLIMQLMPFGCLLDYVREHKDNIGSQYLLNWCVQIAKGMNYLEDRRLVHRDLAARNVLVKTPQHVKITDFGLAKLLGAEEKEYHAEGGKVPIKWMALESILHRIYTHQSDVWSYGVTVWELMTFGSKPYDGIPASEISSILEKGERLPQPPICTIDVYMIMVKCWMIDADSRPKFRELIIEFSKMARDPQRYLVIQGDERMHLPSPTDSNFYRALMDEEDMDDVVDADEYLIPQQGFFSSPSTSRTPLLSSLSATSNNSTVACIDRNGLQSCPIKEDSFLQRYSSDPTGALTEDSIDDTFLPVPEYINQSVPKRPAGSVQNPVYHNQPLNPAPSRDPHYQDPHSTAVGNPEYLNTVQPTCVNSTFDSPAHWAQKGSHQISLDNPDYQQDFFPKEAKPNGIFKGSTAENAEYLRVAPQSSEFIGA
Experimental: The Omnia Assay Protocol for potency assessment against EGFR is performed as described in Example 251 above except that the EGFR-WT- and EGFR T790M/L858R-modified optimized reagent conditions are: […]

ERBB1 = ERBB1 (Homo sapiens (Human), UniProt P00533); assay: Z'-LYTE kinase inhibition, ErbB1; assay type: biochemical
Experimental: (§1) Compounds of the present invention were assayed as inhibitors of one or more of ErbB1, ErbB2, and/or ErbB4 in a manner substantially similar to the method described by Invitrogen Corp (Invitrogen Corporation, 1600 Faraday Avenue, Carlsbad, Calif., CA; http://www.invitrogen.com/downloads/Z-LYTE_Brochure_1205.pdf) using the Z'-LYTE™ biochemical assay procedure or similar biochemical assay. The Z'-LYTE™ biochemical assay employs a fluorescence-based, coupled-enzyme format and is based on the differential sensitivity of phosphorylated and non-phosphorylated peptides to proteolytic cleavage.

ERBB4 (HER4) = ERBB4 (HER4) (Homo sapiens (Human), UniProt Q15303); assay: Z'-LYTE kinase inhibition, ErbB4; assay type: biochemical
Experimental: as §1

EGFR-WT = EGFR-WT (Homo sapiens (Human), UniProt P00533); assay: Omnia assay for potency assessment against EGFR (WT)
Sequence of EGFR-WT (P00533 668-1210): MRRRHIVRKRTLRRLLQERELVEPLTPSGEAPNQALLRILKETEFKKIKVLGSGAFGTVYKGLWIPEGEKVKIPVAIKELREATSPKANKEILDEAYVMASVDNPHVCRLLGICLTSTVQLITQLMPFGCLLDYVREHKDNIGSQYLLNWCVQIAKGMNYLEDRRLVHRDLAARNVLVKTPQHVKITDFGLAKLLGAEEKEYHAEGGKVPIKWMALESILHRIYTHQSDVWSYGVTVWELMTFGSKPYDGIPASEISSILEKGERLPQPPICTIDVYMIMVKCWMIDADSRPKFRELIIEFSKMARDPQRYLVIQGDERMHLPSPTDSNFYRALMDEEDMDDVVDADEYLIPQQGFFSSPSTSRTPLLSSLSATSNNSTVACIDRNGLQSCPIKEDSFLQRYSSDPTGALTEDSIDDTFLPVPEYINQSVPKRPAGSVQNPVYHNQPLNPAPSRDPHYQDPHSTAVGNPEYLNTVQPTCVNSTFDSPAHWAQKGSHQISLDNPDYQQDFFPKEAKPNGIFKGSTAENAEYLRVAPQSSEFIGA

EGFR-T790M/L858R = EGFR-T790M/L858R (Homo sapiens (Human), UniProt P00533, L858R/T790M); assay: Omnia assay for potency assessment against EGFR (T790M/L858R); conditions: read-out: EGFR (T790M/L858R); EGFR mutant T790M/L858R
Sequence of EGFR-T790M/L858R (P00533 25-1210 T790M/L858R): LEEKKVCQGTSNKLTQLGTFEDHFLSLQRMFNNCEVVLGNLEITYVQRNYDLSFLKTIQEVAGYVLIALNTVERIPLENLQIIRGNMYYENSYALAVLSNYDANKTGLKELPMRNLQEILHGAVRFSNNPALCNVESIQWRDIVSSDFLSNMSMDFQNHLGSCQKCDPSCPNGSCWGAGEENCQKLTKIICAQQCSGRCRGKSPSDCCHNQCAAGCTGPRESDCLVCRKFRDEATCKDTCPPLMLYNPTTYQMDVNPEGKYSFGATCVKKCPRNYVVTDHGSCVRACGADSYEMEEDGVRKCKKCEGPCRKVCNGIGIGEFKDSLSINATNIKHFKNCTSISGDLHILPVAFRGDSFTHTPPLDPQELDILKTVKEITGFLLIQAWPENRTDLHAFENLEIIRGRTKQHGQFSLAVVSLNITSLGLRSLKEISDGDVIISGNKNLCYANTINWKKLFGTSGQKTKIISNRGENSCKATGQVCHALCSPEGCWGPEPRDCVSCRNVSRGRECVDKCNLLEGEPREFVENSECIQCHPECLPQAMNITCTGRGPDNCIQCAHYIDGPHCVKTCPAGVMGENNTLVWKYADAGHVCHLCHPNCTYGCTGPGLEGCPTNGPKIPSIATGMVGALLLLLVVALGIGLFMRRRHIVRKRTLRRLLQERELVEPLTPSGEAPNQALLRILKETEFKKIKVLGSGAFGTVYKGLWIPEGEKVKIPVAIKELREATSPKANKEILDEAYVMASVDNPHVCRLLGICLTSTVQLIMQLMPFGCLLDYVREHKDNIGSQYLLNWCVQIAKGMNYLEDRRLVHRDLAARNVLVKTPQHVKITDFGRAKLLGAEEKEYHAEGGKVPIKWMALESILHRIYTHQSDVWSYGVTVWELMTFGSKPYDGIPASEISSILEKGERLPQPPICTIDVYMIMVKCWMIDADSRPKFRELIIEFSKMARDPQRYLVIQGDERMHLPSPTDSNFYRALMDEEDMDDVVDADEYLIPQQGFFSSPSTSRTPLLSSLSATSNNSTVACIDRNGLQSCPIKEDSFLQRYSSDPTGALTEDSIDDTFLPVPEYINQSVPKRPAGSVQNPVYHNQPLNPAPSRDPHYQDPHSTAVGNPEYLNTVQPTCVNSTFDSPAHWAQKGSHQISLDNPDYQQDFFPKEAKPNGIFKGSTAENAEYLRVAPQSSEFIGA

BTK [2] = target: T1, BTK; assay: BTK Ramos cellular assay (PLCγ2 phosphorylation); assay type: cell-based; conditions: Ramos cells, 1 hour compound, anti-IgM stimulation, p-PLCγ2; read-out: BTK Inhibition (IC50), BTK Ramos cellular inhibition
BTK [3] = target: T1, BTK; assay: Mass spectrometry for BTK (intact protein); assay type: binding; conditions: 1 hr, 10× fold excess of compound
Experimental: Intact BTK was incubated for 1 hr at a 10× fold excess of I-7 to protein. Aliquots (2 μl) of the samples were diluted with 10 μl of 0.1% TFA prior to micro C4 ZipTipping directly onto the MALDI target using Sinapinic acid as the desorption matrix (10 mg/ml in 0.1% TFA:Acetonitrile 20:80).

[4] = system: TI-2 independent B cell activation; assay: In vivo thymus-independent (TI-2) B cell activation; conditions: C57/B6 mice, 100 mg/kg daily day 0 through 5, TNP-Ficoll, serum day 6
PG-PS arthritis model = assay type: in vivo; conditions: female Lewis rats, oral gavage daily through day 22
Experimental: On day 0, female Lewis rats received an intraperitoneal (IP) bolus of peptidoglycan-polysaccharide (PG-PS) in an amount of 15 μg/g rat body weight. Baseline control rats received an IP bolus of PBS. The vehicle and treatment groups were dosed via oral gavage just prior to PG-PS administration. Treatment with vehicle and compound continued each day through day 22. Maximal lateral ankle width measurements of both rear limbs were collected with a caliper throughout the study. On day 23, study was terminated and the final change in ankle swelling was calculated and compared to vehicle controls.

BTK [5] = target: T1, BTK; assay: BTK occupancy from in vitro samples by ELISA (Ramos cells); assay type: cell-based; conditions: ELISA with probe I-215
Experimental: (§2) In order to determine the amount of free BTK in cell or tissue lysates, an ELISA protocol was employed that utilizes a biotinylated probe compound that binds only to free, unoccupied BTK. The conjugated biotin is captured on a streptavidin-coated ELISA plate and detected with a mouse anti-BTK antibody (Becton Dickinson, Franklin Lakes, N.J., USA) and a secondary goat anti-mouse HRP antibody (Zymed, South San Francisco, Calif., USA).
All samples were prepared with equal concentrations of Biorad lysis buffer (Hercules, Calif., USA), 0.5% bovine serum albumin in PBS with 0.05% Tween-20 to give a final concentration of 1 μM I-215. Samples were incubated in a mixing plate for 1 hr at room temperature while shaking to allow probe compound I-215 to bind to free BTK. After incubation with I-215, samples were added to a washed, streptavidin-coated ELISA plate (Pierce, Rockford, Ill., USA) and incubated for 1 hr at room temperature while shaking. The plate was then washed with PBS containing 0.05% Tween-20 using an automatic plate washer. Anti-BTK antibody was prepared at 1:1000 dilution in 0.5% BSA in PBS (0.05% Tween-20) and added to the ELISA plate. The plate was incubated for 1 hr at room temperature while shaking. The plate was washed as described above and the secondary HRP antibody was prepared at 1:5000 dilution in 0.5% BSA in PBS (0.05% Tween-20). The plate was incubated and washed as described above. TMB was added to the plate, and OD650 was monitored until reaching 1 OD unit. The reaction was then stopped with addition of H2SO4. The plate was analyzed using Gen 5 software, and a 4 Parameter Logistic curve was employed to quantitate samples. Recombinant BTK (Invitrogen, Carlsbad, Calif., USA) was used for the standard curve.
A concentration designated as “A” is greater than 1 nM; a concentration designated as “B” is greater than 10 nM; and a concentration designated as “C” is greater than 50 nM.

BTK [6] = target: T1, BTK; assay: Human primary B cell covalent probe occupancy in vitro; assay type: cell-based; conditions: human primary B cells, 1 h at 37° C., probe I-215 ELISA
Experimental: as §2
(§3) All samples were prepared with equal concentrations of Biorad lysis buffer (Hercules, Calif., USA), 0.5% bovine serum albumin in PBS with 0.05% Tween-20 to give a final concentration of 1 μM I-215. Samples were incubated in a mixing plate for 1 hr at room temperature while shaking to allow probe compound I-215 to bind to free BTK. After incubation with I-215, samples were added to a washed, streptavidin-coated ELISA plate (Pierce, Rockford, Ill., USA) and incubated for 1 hr at room temperature while shaking. […] TMB was added to the plate, and OD650 was monitored until reaching 1 OD unit. […] The plate was analyzed using Gen 5 software, and a 4 Parameter Logistic curve was employed to quantitate samples. […]
Human primary B cells were isolated as described in Example 256, then resuspended in RPMI media (10% serum). The compound to be analyzed was added at a 1:1000 dilution to media. […] The supernatant was analyzed as described in Example 283 using I-215.

BTK [7] = target: BTK (Canis lupus familiaris, UniProt A0A8I3P3Z9); assay: Dog primary B cell covalent probe occupancy in vitro; assay type: cell-based; conditions: canine PBMCs, one hour at 37° C., probe I-215 ELISA
Sequence of BTK (Canis lupus familiaris, UniProt A0A8I3P3Z9) (A0A8I3P3Z9 1-664): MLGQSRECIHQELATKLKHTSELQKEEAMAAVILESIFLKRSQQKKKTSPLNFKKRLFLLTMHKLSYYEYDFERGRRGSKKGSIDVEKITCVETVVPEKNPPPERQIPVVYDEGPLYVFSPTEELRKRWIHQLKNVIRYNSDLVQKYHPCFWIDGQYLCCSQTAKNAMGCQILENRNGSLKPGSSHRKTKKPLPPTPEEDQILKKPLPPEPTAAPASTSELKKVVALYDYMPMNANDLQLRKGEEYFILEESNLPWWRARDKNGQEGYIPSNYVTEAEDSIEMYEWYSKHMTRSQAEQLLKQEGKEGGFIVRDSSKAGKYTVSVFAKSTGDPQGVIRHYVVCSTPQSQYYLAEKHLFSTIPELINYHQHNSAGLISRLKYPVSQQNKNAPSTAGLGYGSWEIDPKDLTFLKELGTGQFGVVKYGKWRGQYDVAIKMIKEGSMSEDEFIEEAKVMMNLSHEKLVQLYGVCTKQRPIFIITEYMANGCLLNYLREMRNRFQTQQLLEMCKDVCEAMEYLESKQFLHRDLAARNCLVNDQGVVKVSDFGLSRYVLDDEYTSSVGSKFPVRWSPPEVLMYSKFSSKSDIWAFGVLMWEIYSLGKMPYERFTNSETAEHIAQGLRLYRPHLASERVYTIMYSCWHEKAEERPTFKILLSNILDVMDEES
Experimental: as §2, §3
Canine whole blood (30 mL) was diluted to 50 mL total with 1×PBS and layered on top of Histopaque-1077 (Sigma Aldrich). […] The supernatant was analyzed as described in Example 283 using I-215. […]

Human naïve B cells = assay: Human primary B cell proliferation assay; assay type: cell-based
Experimental: Human naïve B cells were purified from 100 mL whole blood using a MACS purification kit designed to isolate CD19+, IgD+ cells by negative selection. Purified naïve B cells were resuspended in RPMI complete and stimulated with 5 μg/ml α-IgM for 72 hours. ^3H-Thymidine was included in the culture media for the final 16 h, cells were harvested and ^3H incorporation measured. Inhibition of B cell proliferation correlates with inhibition of BTK substrate phosphorylation after α-IgM stimulation.

T1 sequence (Q06187 whole entry): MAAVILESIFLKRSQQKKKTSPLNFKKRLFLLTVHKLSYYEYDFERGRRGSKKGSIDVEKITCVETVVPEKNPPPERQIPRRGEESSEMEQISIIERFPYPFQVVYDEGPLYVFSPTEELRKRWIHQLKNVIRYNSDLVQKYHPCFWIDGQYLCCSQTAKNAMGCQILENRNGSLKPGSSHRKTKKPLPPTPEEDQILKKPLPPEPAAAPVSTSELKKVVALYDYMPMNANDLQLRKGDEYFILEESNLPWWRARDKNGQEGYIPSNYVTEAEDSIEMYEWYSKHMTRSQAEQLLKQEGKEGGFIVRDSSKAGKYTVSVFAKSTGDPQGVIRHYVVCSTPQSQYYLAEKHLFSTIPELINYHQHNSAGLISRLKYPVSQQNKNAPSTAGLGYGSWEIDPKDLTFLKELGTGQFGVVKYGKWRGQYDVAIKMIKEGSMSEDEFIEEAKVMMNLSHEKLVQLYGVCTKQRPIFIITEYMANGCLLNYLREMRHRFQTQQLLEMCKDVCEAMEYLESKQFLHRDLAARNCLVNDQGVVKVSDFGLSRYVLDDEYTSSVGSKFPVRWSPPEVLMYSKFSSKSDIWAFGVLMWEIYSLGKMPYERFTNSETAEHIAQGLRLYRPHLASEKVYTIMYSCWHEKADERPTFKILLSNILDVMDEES

SMILES	IC50 (BTK [1])	IC50 (ITK)	IC50 (EGFR T790M)	IC50 (ERBB1)	IC50 (ERBB4 (HER4))	IC50 (EGFR-WT)	IC50 (EGFR-T790M/L858R)	IC50 (BTK [2])	covalent modification of BTK (mass spectrometry) (BTK [3])	% Inhibition IgG3 (1:100) [4]	% Inhibition IgM (1:1600) [4]	% inhibition ankle swelling (PG-PS arthritis model)	>50% occupancy (concentration at which >50% of BTK is occupied) (BTK [5])	>90% occupancy (concentration at which >90% of BTK is occupied) (BTK [5])	concentration at which at least 50% of BTK is occupied (BTK [6])	concentration at which at least 50% of BTK is occupied (BTK [7])	IC50 (EGFR-WT; read-out: EGFR (wild type inhibition), EGFR wild type)	biochemical activity against BTK (BTK [1])	activity in the naïve B cell proliferation assay (Human naïve B cells)
C=CC(=O)Nc1ccc(C)c(Nc2nccc(-c3cccnc3)n2)c1 [Compound I-56, N-(4-methyl-3-(4-(pyridin-3-yl)pyrimidin-2-ylamino)phenyl) acrylamide]	100 to 1000 nM	100 to 1000 nM	10 to 100 nM	2230 nM	2170 nM	10 to 100 nM	< 10 nM	–	–	–	–	–	–	–	–	–	–	–	–
C=CC(=O)Nc1cccc(Nc2nc(Nc3ccc(OCCOC)c(F)c3)ncc2F)c1 [Compound I-96, N-(3-(2-(3-fluoro-4-(2-methoxyethoxy)phenylamino)-5-fluoropyrimidin-4-ylamino)phenyl)acrylamide]	< 10 nM	10 to 100 nM	< 10 nM	–	–	10 to 100 nM	< 10 nM	< 10 nM	completely modify	37.2%	43%	82.8%	A (greater than 1 nM)	B (greater than 10 nM)	greater than 10 nM	greater than 10 nM	–	–	–
C=CC(=O)Nc1cccc(Nc2nc(Nc3ccc(OCCOC)cc3)ncc2F)c1 [Compound I-182, N-(3-(5-fluoro-2-(4-(2-methoxyethoxy)phenylamino)pyrimidin-4-ylamino)phenyl)acrylamide]	–	10 to 100 nM	–	–	–	–	–	–	completely modify	40%	25%	–	A (greater than 1 nM)	C (greater than 50 nM)	greater than 10 nM	–	< 10 nM	–	–
CCC(=O)Nc1cccc(Nc2nc(Nc3ccccc3)ncc2C)c1 [I^R-7, N-(3-(5-methyl-2-(phenylamino)pyrimidin-4-ylamino)phenyl) propionamide]	100 to 1000 nM	–	–	–	–	1000 to 10000 nM	1000 to 10000 nM	–	–	–	–	–	–	–	–	–	–	biochemically inactive	not active
